This test concerns HCV RNA. The test is described as follows: HCV RNA copy number by RT-qPCR in Huh-luc/neo-ET cells. In kind it is cell-based. As to conditions: 72 hr treatment. The protocol:
Measurement of HCV RNA levels in response to drug were carried out by first seeding Huh-luc/neo-ET cells in 100 μl of medium at 7,500 cells per well for 72 hour drug treatments and allowed to adhere overnight for approximately 20 hours. Compounds were added at a 1:1000 dilution in duplicate and added to cells in 3 separate experiments. Total RNA was harvested using an RNeasy 96-well kit (Qiagen) according to the manufacturer's protocol and quantified using the Quant-iT™ RiboGreen® RNA Reagent (Invitrogen). Purified RNA (4 μl) was added to TaqMan reactions containing 10 μl of QuantiTect Probe RT-PCR Master Mix (Qiagen) and 0.2 μL, of QuantiTect RT Mix. […] All 20 μl reactions were assayed in an Eppy Twin-Tec skirted PCR plate (Eppendorf) and subjected to quantitative one-step RT-PCR with an Eppendorf Realplex4 qPCR machine (Eppendorf) using the following program: 50° C. for 30 min, 95° C. for 15 min, and 40 cycles of 95° C. for 15 s followed by 60° C. for 1 min 15 s. Absolute quantification of HCV RNA copy number was determined by comparing PCR signals to a standard curve generated from dilutions of a 160 by PCR-amplified fragment of the 5′NTR of HCV. […] All qPCR samples quantified by comparison to the standard curve were subsequently normalized to total RNA per sample to account for variations in sample purification and preparation steps. […]

SMILES strings stand for the structures.

Data on one compound can be found in patent US20100092479A1, “Compositions and methods for treatment of viral diseases” (CombinatoRx (Singapore) Pte. Ltd., priority 2008, published 2010).

Take `C=C(CC[C@]12O[C@H](C(=O)O)[C@@](O)(C(=O)O)[C@](C(=O)O)(O1)[C@H](OC(=O)/C=C/[C@@H](C)C[C@@H](C)CC)[C@H]2O)[C@@H](OC(C)=O)[C@H](C)Cc1ccccc1` [Squalestatin]: the “effect on HCV RNA replication (viral RNA copy number normalized to total RNA)” value is listed as “proviral effects”.
